{
  "source": "patent US12404283B2",
  "about": "“c-MYC mRNA translation modulators and uses thereof in the treatment of cancer” (Anima Biotech Inc., priority 2022, dated 2025)",
  "data": [
    {"tested_on": "c-Myc", "test": "c-Myc immunofluorescence assay", "assay_type": "cell-based, human", "conditions": "A549 cells, 24 hours treatment, anti-c-Myc immunofluorescence", "outline": "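High-content imaging (20×) of PFA-fixed A549 cells immunostained for c-Myc with DAPI nuclei, after 24 h compound treatment at increasing concentrations. Per-cell c-Myc signal in identified cell regions was plotted against dose and fitted by logistic regression to give EC50.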", "values": [
      {"smiles": "O=C(NCCCN1CCC(F)CC1)c1ccc2c(c1)sc1nc(-c3cc4c(cc3F)NCC4)cn12", "note": "[Compound 602, 2-(6-fluoroindolin-5-yl)-N-(3-(4-fluoropiperidin-1-yl)propyl)benzo[d]imidazo[2,1-b]thiazole-7-carboxamide]", "Myc Efficacy (−LogEC50)": "+++ (+++ ≥6)"},
      {"smiles": "CCN(CC)CCCNC(=O)c1ccc2c(c1)sc1nc(-c3ccc(CN(C)C)cc3)cn12", "note": "[compound 276, N-(3-(diethylamino)propyl)-2-(4-((dimethylamino)methyl)phenyl)benzo[d]imidazo[2,1-b]thiazole-7-carboxamide]", "Myc Efficacy (−LogEC50)": "+++ (+++ ≥6)"},
      {"smiles": "CCN(CC)CCCNC(=O)c1ccc2c(c1)sc1nc(-c3cncc(C)c3)cn12", "note": "[compound 165, N-(3-(diethylamino)propyl)-2-(5-methylpyridin-3-yl)benzo[d]imidazo[2,1-b]thiazole-7-carboxamide]", "Myc Efficacy (−LogEC50)": "+ (+ >3 and <5)"},
      {"smiles": "CNC(=O)c1ccc(-c2cn3c(n2)sc2cc(C(=O)N[C@H]4C[C@@H](NC)C4)ccc23)cc1", "note": "[compound 246, N-((1s,3s)-3-(methylamino)cyclobutyl)-2-(4-(methylcarbamoyl)phenyl) benzo[d]imidazo[2,1-b] thiazole-7-carboxamide]", "Myc Efficacy (−LogEC50)": "+ (+ >3 and <5)"},
      {"smiles": "CNC(=O)c1ccc(-c2cn3c(n2)sc2cc(C(=O)NCCC4(O)CCCC4)ccc23)cc1", "note": "[compound 260, N-(2-(1-hydroxycyclopentyl)ethyl)-2-(4-(methylcarbamoyl)phenyl) benzo[d]imidazo[2,1-b]thiazole-7-carboxamide]", "Myc Efficacy (−LogEC50)": "− (− ≤3)"},
      {"smiles": "Cc1cccc(-c2cn3c(n2)sc2cc(C(=O)NCCCN4CCOCC4)ccc23)c1", "note": "[compound 134, N-(3-morpholinopropyl)-2-(m-tolyl)benzo[d]imidazo[2,1-b]thiazole-7-carboxamide]", "Myc Efficacy (−LogEC50)": "+ (+ >3 and <5)"},
      {"smiles": "O=C(NCCCN1CCC(F)CC1)c1ccc2c(c1)sc1nc(-c3ccc([C@@H]4CCCN4)cc3F)cn12", "note": "[compound 420, (S)-2-(2-fluoro-4-(pyrrolidin-2-yl)phenyl)-N-(3-(4-fluoropiperidin-1-yl)propyl)benzo[d]imidazo [2,1-b]thiazole-7-carboxamide]", "Myc Efficacy (−LogEC50)": "+++ (+++ ≥6)"},
      {"smiles": "CCN(CC)CCCNC(=O)c1ccc2c(c1)sc1nc(-c3ccc(CNC4CC4)cc3)cn12", "note": "[compound 300, 2-(4-((cyclopropylamino)methyl)phenyl)-N-(3-(diethylamino)propyl)benzo [d]imidazo[2,1-b]thiazole-7-carboxamide]", "Myc Efficacy (−LogEC50)": "+++ (+++ ≥6)"},
      {"smiles": "O=C(NCCCN1CCC(F)CC1)c1ccc2c(c1)sc1nc(-c3ccc(C4CC(C(F)F)CN4)cc3F)cn12", "note": "(centres unmarked) [Compound 542, 2-(4-(4-(difluoromethyl)pyrrolidin-2-yl)-2-fluorophenyl)-N-(3-(4-fluoropiperidin-1-yl)propyl)benzo[d]imidazo[2,1-b]thiazole-7-carboxamide]", "Myc Efficacy (−LogEC50)": "+++ (+++ ≥6)"},
      {"smiles": "CCCSCCCNC(=O)c1ccc2c(c1)sc1nc(-c3ccc(F)cc3)cn12", "note": "[compound 105, 2-(4-fluorophenyl)-N-(3-(propylthio)propyl)benzo[d] imidazo[2,1-b]thiazole-7-carboxamide]", "Myc Efficacy (−LogEC50)": "+ (+ >3 and <5)"},
      {"smiles": "CCc1nccn1CCNC(=O)c1ccc2c(c1)sc1nc(-c3ccc(C(=O)NC)cc3)cn12", "note": "[compound 243, N-(2-(2-ethyl-1H-imidazol-1-yl)ethyl)-2-(4-(methylcarbamoyl)phenyl) benzo[d]imidazo[2,1-b] thiazole-7-carboxamide]", "Myc Efficacy (−LogEC50)": "+ (+ >3 and <5)"},
      {"smiles": "O=C(NCCCN1CCC(F)CC1)c1cc2sc3nc(-c4ccc([C@@H]5CCCN5)cc4F)cn3c2cn1", "note": "[Compound 509S, (S)-2-(2-fluoro-4-(pyrrolidin-2-yl)phenyl)-N-(3-(4-fluoropiperidin-1-yl)propyl)imidazo[2′,1′:2,3]thiazolo[4,5-c]pyridine-7-carboxamide]", "Myc Efficacy (−LogEC50)": "+++ (+++ ≥6)"},
      {"smiles": "CNC(=O)c1ccc2c(c1)sc1nc(-c3ccc(C4CCNC4)cc3F)cn12", "note": "(centres unmarked) [Compound 504, 2-(2-fluoro-4-(pyrrolidin-3-yl)phenyl)-N-methylbenzo[d]imidazo[2,1-b]thiazole-7-carboxamide]", "Myc Efficacy (−LogEC50)": "+++ (+++ ≥6)"},
      {"smiles": "CCN(CC)CCCNC(=O)c1ccc2c(c1)sc1nc(-c3ccc([C@@H](NC)C(F)(F)F)cc3)cn12", "note": "[compound 293, (R)-N-(3-(diethylamino)propyl)-2-(4-(2,2,2-trifluoro-1-(methylamino)ethyl)phenyl) benzo[d]imidazo[2,1-b]thiazole-7-carboxamide]", "Myc Efficacy (−LogEC50)": "++ (++ ≥5 and <6)"},
      {"smiles": "CNC(=O)c1ccc(-c2cn3c(n2)sc2cc(C(=O)NCC4CC(O)C4)ccc23)cc1", "note": "(centres unmarked) [compound 226, N-((3-hydroxycyclobutyl)methyl)-2-(4-(methylcarbamoyl)phenyl) benzo[d]imidazo[2,1-b]thiazole-7-carboxamide]", "Myc Efficacy (−LogEC50)": "− (− ≤3)"},
      {"smiles": "O=C(NCCCN1CCCCC1)c1ccc2c(c1)sc1nc(-c3ccc(Cl)cc3)cn12", "note": "[compound 132, 2-(4-chlorophenyl)-N-(3-(piperidin-1-yl)propyl) benzo[d]imidazo[2,1-b]thiazole-7-carboxamide]", "Myc Efficacy (−LogEC50)": "++ (++ ≥5 and <6)"},
      {"smiles": "C#CCCC1(CCNC(=O)c2ccc(-c3cn4c(n3)sc3cc(C(=O)NCCCN(CC)CC)ccc34)cc2)N=N1", "note": "[compound 322, 2-(4-((2-(3-(but-3-yn-1-yl)-3H-diazirin-3-yl)ethyl)carbamoyl)phenyl)-N-(3-(diethylamino)propyl) benzo[d]imidazo[2,1-b] thiazole-7-carboxamide]", "Myc Efficacy (−LogEC50)": "+ (+ >3 and <5)"},
      {"smiles": "CNC(=O)c1ccc(-c2cn3c(n2)sc2cc(C(=O)NCCCN4CCCCC4)ccc23)c(F)c1", "note": "[compound 281, 2-(2-fluoro-4-(methylcarbamoyl)phenyl)-N-(3-(piperidin-1-yl)propyl)benzo[d]imidazo [2,1-b]thiazole-7-carboxamide]", "Myc Efficacy (−LogEC50)": "++ (++ ≥5 and <6)"},
      {"smiles": "O=C(NCCCN1CCCCC1)c1ccc2c(c1)sc1nc(-c3ccc([C@@H]4CCCN4)cc3)cn12", "note": "[compound 413, (S)-N-(3-(piperidin-1-yl)propyl)-2-(4-(pyrrolidin-2-yl)phenyl)benzo[d]imidazo [2,1-b]thiazole-7-carboxamide]", "Myc Efficacy (−LogEC50)": "+++ (+++ ≥6)"},
      {"smiles": "CCN(CC)CCCNC(=O)c1ccc2c(c1)sc1nc(-c3cccc(C4COC4)c3)cn12", "note": "[compound 308, N-(3-(diethylamino)propyl)-2-(3-(oxetan-3-yl)phenyl)benzo[d]imidazo [2,1-b]thiazole-7-carboxamide]", "Myc Efficacy (−LogEC50)": "+ (+ >3 and <5)"},
      {"smiles": "CCN(CC)CCCNC(=O)c1ccc2c(c1)sc1nc(-c3ccc(CNCCOC)cc3)cn12", "note": "[compound 292, N-(3-(diethylamino)propyl)-2-(4-(((2-methoxyethyl)amino)methyl)phenyl)benzo[d]imidazo[2,1-b]thiazole-7-carboxamide]", "Myc Efficacy (−LogEC50)": "+++ (+++ ≥6)"},
      {"smiles": "CCN(CC)CCCNC(=O)c1ccc2c(c1)sc1nc(-c3cccc(C)c3)cn12", "note": "[compound 118, N-(3-(diethylamino)propyl)-2-(m-tolyl)benzo[d]imidazo [2,1-b]thiazole-7-carboxamide]", "Myc Efficacy (−LogEC50)": "+++ (+++ ≥6)"},
      {"smiles": "O=C(NCCCN1CCC(F)CC1)c1cc2sc3nc(-c4ccc(C5CCCN5)cc4F)cn3c2cn1", "note": "(centres unmarked) [Compound 501, 2-(2-fluoro-4-(pyrrolidin-2-yl)phenyl)-N-(3-(4-fluoropiperidin-1-yl)propyl)imidazo[2′,1′:2,3]thiazolo[4,5-c]pyridine-7-carboxamide]", "Myc Efficacy (−LogEC50)": "+++ (+++ ≥6)"},
      {"smiles": "O=C(NCCCN1CCC(F)CC1)c1ccc2c(c1)sc1nc(-c3ccc(C4CCCN4)c(F)c3F)cn12", "note": "(centres unmarked) [Compound 476, 2-(2,3-difluoro-4-(pyrrolidin-2-yl)phenyl)-N-(3-(4-fluoropiperidin-1-yl)propyl)benzo[d]imidazo[2,1-b]thiazole-7-carboxamide]", "Myc Efficacy (−LogEC50)": "+++ (+++ ≥6)"},
      {"smiles": "CNC(=O)c1ccc(-c2cn3c(n2)sc2cc(C(=O)NCCCN4CCCCC4)cnc23)cc1", "note": "[compound 317, 2-(4-(methylcarbamoyl)phenyl)-N-(3-(piperidin-1-yl)propyl)imidazo[2′,1′:2,3] thiazolo[4,5-b]pyridine-7-carboxamide]", "Myc Efficacy (−LogEC50)": "+ (+ >3 and <5)"},
      {"smiles": "CNC(=O)c1ccc(-c2cn3c(n2)sc2cc(C(=O)NCCCN4CCCCC4)ncc23)cc1", "note": "[compound 406, 2-(4-(methylcarbamoyl)phenyl)-N-(3-(piperidin-1-yl)propyl)imidazo[2′,1′:2,3] thiazolo[4,5-c]pyridine-7-carboxamide]", "Myc Efficacy (−LogEC50)": "++ (++ ≥5 and <6)"},
      {"smiles": "CNC(=O)c1ccc(-c2cn3c(n2)sc2cc(C(=O)NCCCN4CCC(F)CC4)ccc23)c(F)c1", "note": "[compound 320, 2-(2-fluoro-4-(methylcarbamoyl)phenyl)-N-(3-(4-fluoropiperidin-1-yl)propyl)benzo[d]imidazo [2,1-b]thiazole-7-carboxamide]", "Myc Efficacy (−LogEC50)": "+++ (+++ ≥6)"},
      {"smiles": "Cc1cccc(-c2cn3c(n2)sc2cc(C(=O)NCCCC4CCOCC4)ccc23)c1", "note": "[compound 139, N-(3-(tetrahydro-2H-pyran-4-yl)propyl)-2-(m-tolyl)benzo[d]imidazo[2,1-b]thiazole-7-carboxamide]", "Myc Efficacy (−LogEC50)": "+ (+ >3 and <5)"},
      {"smiles": "CCCNC(=O)c1ccc2c(c1)sc1nc(-c3ccc(C)cc3)cn12", "note": "[compound 108, N-propyl-2-(p-tolyl)benzo[d]imidazo[2,1-b]thiazole-7-carboxamide]", "Myc Efficacy (−LogEC50)": "++ (++ ≥5 and <6)"},
      {"smiles": "CCN(CC)CCCNC(=O)c1ccc2c(c1)sc1nc(-c3ccc(CN)cc3F)cn12", "note": "[compound 298, 2-(4-(aminomethyl)-2-fluorophenyl)-N-(3-(diethylamino)propyl)benzo [d]imidazo[2,1-b]thiazole-7-carboxamide]", "Myc Efficacy (−LogEC50)": "+++ (+++ ≥6)"},
      {"smiles": "NCc1ccc(-c2cn3c(n2)sc2cc(C(=O)NCCCN4CCCCC4)ccc23)c(Cl)c1", "note": "[compound 369, 2-(4-(aminomethyl)-2-chlorophenyl)-N-(3-(piperidin-1-yl)propyl)benzo[d]imidazo [2,1-b]thiazole-7-carboxamide]", "Myc Efficacy (−LogEC50)": "+++ (+++ ≥6)"},
      {"smiles": "CCN(CC)CCCN(C)C(=O)c1ccc2c(c1)sc1nc(-c3cccc(C)c3)cn12", "note": "[compound 181, N-(3-(diethylamino)propyl)-N-methyl-2-(m-tolyl)benzo[d]imidazo[2,1-b]thiazole-7-carboxamide]", "Myc Efficacy (−LogEC50)": "++ (++ ≥5 and <6)"}
    ]}
  ]
}
